Assay results from PMC5835975, “[^64Cu]NOTA-pentixather enables high resolution PET imaging of CXCR4 expression in a preclinical lymphoma model” (EJNMMI Radiopharmacy and Chemistry, 2017).
Read-outs that look alike come from different tables or passages of the source. Where a SMILES comes first, the peptide text is derived from it. Side-chain parts run from the residue outwards. [ ]: non-standard residue; d: D form. The star is where a group is joined. NODAGA = O=C(O)CN1CCN(CC(=O)O)CCN(C(CCC(=O)*)C(=O)O)CC1; NOTA = O=C(O)CN1CCN(CC(=O)O)CCN(CC(=O)*)CC1; dTyr(3-I) = N[C@H](Cc1ccc(O)c(I)c1)C(=O)O; 2Nal = N[C@@H](Cc1ccc2ccccc2c1)C(=O)O; dNMeOrn = CN[C@H](CCCN)C(=O)O; 4Amb = NCc1ccc(C(=O)O)cc1

Assays:
[1] = set-up: species or system mice; settings: mouse, in vivo, iv
Description: (§1) Biodistribution data of [^64Cu]NOTA-pentixather at 1.5 h p.i. (n = 5, black bars) and 24 h p.i. Given the fact that Jurkat cells, which are generally used for the determination of CXCR4 affinity, are not tumorigenic in mice and to ensure comparability of data with previous studies (Poschenrieder et al. [2016a]; Wester et al. [2015]; Schottelius et al. [2015]), the Daudi lymphoma model was also used in this study. […] While the tumor-to-background ratios for most tissues remain unchanged or decrease within the observation period, t/blood and t/intestine ratios increase 1.3 and 2.4 fold between 1.5 and 24 h p.i., respectively.
(§2) Fig. 3 Biodistribution of [^64Cu]NOTA-pentixather at 1.5 h (tracer only, black bars, n = 5) and 24 h p.i. (grey bars, n = 6) in Daudi xenograft-bearing CB-17 SCID mice. Mice were injected with 5.2 MBq [^64Cu]NOTA-pentixather (122 pmol/0.160 μg peptide; AS = 43 GBq/μmol). Non-specific tracer accumulation was determined by coinjection of 2 mg/kg AMD3100 (50 μg/mouse; white bars, n = 3)
(§3) For PET and biodistribution studies, an average of 5.2 MBq [^64Cu]NOTA-pentixather (200 μL in PBS, 122 pmol, 160 ng) with a SA of 43 GBq/μmol was injected intravenously into the tail vein of isofluorane anaesthesized female Daudi (human B-cell lymphoma) xenograft bearing CB17 SCID mice. […] PET imaging with [^64Cu]NOTA-pentixather under ‘tracer only’ (n = 2) as well as blocking conditions (coinjection of 2 mg/kg AMD3100, n = 1) was performed at three different time points (dynamic PET imaging for 1 h, followed by static image acquisition for 15 min after 3.5 and 24 h) using an Inveon Siemens μPET scanner. PET/CT images were reconstructed by a two-dimensional ordered subset expectation maximum (2D-OSEM) algorithm with no attenuation correction. Image analysis was performed using the Inveon software, and results were calculated as %ID/g. For biodistribution studies, the mice were sacrificed at 1.5 h (n = 5) and 24 h (n = 6) p.i., tissues and organs of interest were dissected, weighed, and counted for radioactivity in a γ-counter. The percentage of injected dose per gram of tissue (% ID/g) was calculated; data are presented as mean ± SD.

[2] = system: Daudi xenograft-bearing CB-17 SCID mice; settings: mouse, in vivo
Description: as §1, §2, §3

[3] = format: physicochemical; settings: buffer, 24 h, pH 2.5
Description: To investigate the in vitro stability of [^64Cu]NOTA-pentixather, the tracer was incubated both in human serum at 37 °C and in 0.1 M EDTA at pH = 2.5 and physiological pH (7.4) at RT for different time points up to 24 h (Fig. 7). [^64Cu]NOTA-pentixather remained stable over 24 h in human serum (>99% intact ^64Cu-chelate).
Fig. 7 In vitro stability of [^64Cu]NOTA-pentixather as a function of incubation time.
For challenging experiments, 4 MBq of [^64Cu]NOTA-pentixather were incubated in 0.1 M EDTA at different pH values (2.5 and 7.4) for a minimum of 24 h. At specific time points, samples were analyzed via radio-TLC using silica gel impregnated chromatography paper (Agilent Technologies, CA, USA) and 0.1 M phosphate buffer (pH = 7.4) containing 10 mM sodium EDTA as the mobile phase.

[4] = format: physicochemical; settings: pH 7.4
Description: The lipophilicity and serum stability of [^64Cu]NOTA-pentixather were determined as described previously (Poschenrieder et al. [2016a]). Briefly, to a solution of app. 2 kBq of radiolabelled peptide in 500 μL of PBS (pH 7.4), 500 μL of octanol were added (n = 6). Vials were vortexed vigorously for 3 min. To achieve quantitative phase separation, the vials were centrifuged at 14,600 · g for 6 min in a Biofuge 15 (Heraeus Sepatech, Osterode, Germany). The activity concentrations in 100 μL samples of both the aqueous and the organic phase were measured in a gamma counter, and the log Pow was calculated.

[5] = target: T1, human CXCR4 (Homo sapiens, UniProt P61073); assay: Competitive binding assay on Jurkat T-cell leukemia cells with [^125I]FC131 as radioligand; settings: Jurkat cells 400.000 cells/sample, [^125I]FC131 radioligand, mean ± SD, min. three determinations
T1 construct: CXCR4-expressing Jurkat T-lymphocytes (4 × 10^5 cells per sample); endogenous in cells; host or cells: Jurkat T-cell leukemia cells
Description: The CXCR4 affinities of [^natCu]NOTA- and [^natCu]NODAGA-pentixather as well as of the corresponding metal free chelator-conjugated peptides were determined in a competitive binding assay using standard conditions (CXCR4-expressing Jurkat T-lymphocytes (4 × 10^5 cells per sample) and [^125I]FC131 as the radioligand (Poschenrieder et al. [2016a]; Wester et al. [2015]; Schottelius et al. [2015]; Poschenrieder et al. [2016b])) (Table 1). Data for [^natGa]pentixafor and FC131 are included as a reference. As already observed for [^natGa]pentixafor, metal complexation leads to enhanced CXCR4 affinity, both for [^natCu]NOTA-pentixather and for [^natCu]NODAGA-pentixather.
CXCR4 affinities were determined using Jurkat T-cell leukemia cells and [^125I]FC131 as the radioligand (Poschenrieder et al. [2016b]). Briefly, cells (4 × 10^5 cells per vial) were incubated with app. 0.1 nM of [^125I]FC131 in the presence of varying concentrations (10^−11 to 10^−5 M) of the respective peptide of interest (n = 3 samples/concentration) for 120 min at RT. After centrifugation and repeated washing steps, the amount of free and bound radioligand were quantified for each sample using a γ-counter, and IC50 values were calculated using GraphPad Prism 6.01 software.

T1 sequence (P61073 whole entry): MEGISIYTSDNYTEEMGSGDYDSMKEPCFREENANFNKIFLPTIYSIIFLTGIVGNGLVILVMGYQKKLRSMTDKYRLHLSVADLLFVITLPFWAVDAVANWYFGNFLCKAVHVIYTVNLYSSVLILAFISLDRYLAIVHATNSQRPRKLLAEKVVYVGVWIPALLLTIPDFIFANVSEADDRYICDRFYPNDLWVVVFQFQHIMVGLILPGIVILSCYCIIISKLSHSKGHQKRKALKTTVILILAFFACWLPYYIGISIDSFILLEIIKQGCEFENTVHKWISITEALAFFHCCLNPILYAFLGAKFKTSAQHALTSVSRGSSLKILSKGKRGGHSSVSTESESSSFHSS

Compound	tissue uptake at 1.5 h ([1]; Tumor uptake) [%ID/g]	tissue uptake at 1.5 h ([1]; accumulation in the intestines) [%ID/g]	tissue uptake at 1.5 h ([1]; accumulation in the liver) [%ID/g]	tissue uptake at 1.5 h ([1]; activity accumulation in the kidney) [%ID/g]	tissue uptake at 1.5 h ([1]; activity in blood) [%ID/g]	increase of t/blood ratio [2] [fold]	increase of t/intestine ratio [2] [fold]	tracer remaining intact [3]	logP [4]	IC50 [5] [nM]
CN1C(=O)[C@@H](Cc2ccc(O)c(I)c2)NC(=O)CNC(=O)[C@H](Cc2ccc3ccccc3c2)NC(=O)[C@H](CCCNC(=N)N)NC(=O)[C@H]1CCCNC(=O)c1ccc(CNC(=O)CN2CCN(CC(=O)O)CCN(CC(=O)O)CC2)cc1 [[^64Cu]NOTA-pentixather, metal not drawn] (cyclo([dTyr(3-I)][dNMeOrn]([4Amb-NOTA])R[2Nal]G))	13.1 ± 1.5	5 ± 2.8	7.2 ± 1.1	3.8 ± 0.5	1.1 ± 0.2	1.3	2.4	over 90%	-1.2	
CN1C(=O)[C@@H](Cc2ccc(O)c(I)c2)NC(=O)CNC(=O)[C@H](Cc2ccc3ccccc3c2)NC(=O)[C@H](CCCNC(=N)N)NC(=O)[C@H]1CCCNC(=O)c1ccc(CNC(=O)CCC(C(=O)O)N2CCN(CC(=O)O)CCN(CC(=O)O)CC2)cc1 (stereo partly shown) [NODAGA-pentixather] (cyclo([2Nal]G[dTyr(3-I)][dNMeOrn]([4Amb-NODAGA])R))										64.9 ± 6.5
